Source: US8415376B2, “Inhibitors of PI3 kinase” (Amgen Inc., priority 2008, dated 2013)

Experiments:
PI3Kα = target: T1, PI3Kα (Homo sapiens, UniProt P42336); assay: In vitro PI3K AlphaScreen assay; assay type: biochemical; conditions: average if run more than once
T1 construct: Full length p110 subunits of PI3K α, β and δ, N-terminally labeled with polyHis tag; polyHis (N); made in house; host or cells: Sf9 insect cells (baculovirus)
Experimental: In Vitro PI3K Alphascreen® Assay
The PI3K AlphaScreen® assay (PerkinElmer, Waltham, Mass.) measures the activity of a panel of four phosphoinositide 3-kinases: PI3Kα, PI3Kβ, PI3Kγ, and PI3Kδ. Each of these enzymes phosphorylates the 3′-hydroxyl group on phosphatidylinositiol (4,5)-bisphosphate (PIP2) to produce phosphatidylinositol (3,4,5)-trisphosphate (PIP3). This phosphorylation activity is measured using a GST-tagged PIP3 binding protein (Echelon Biosciences, Salt Lake City, Utah), an anti-GST-tagged Acceptor bead, and streptavidin-Donor bead. […] In the absence of this interaction, proximity of the Donor and Acceptor beads is decreased, producing a loss of luminescent signal which is inversely proportional to PI3K activity.
The enzyme reaction buffer is made using sterile water (Baxter, Deerfield, Ill.) and 50 mM Tris HCl pH 7, 14 mM MgCl2, 2 mM sodium cholate, and 100 mM NaCl. 2 mM DTT is added fresh the day of the experiment. The AlphaScreen® reaction buffer is made using sterile water and 10 mM Tris HCl pH 7.5, 150 mM NaCl, 0.10% Tween 20, and 30 mM EDTA. 1 mM DTT is added fresh the day of the experiment.
The source plates for this assay are 384-well Greiner clear polypropylene plates containing test compounds at 5mM and diluted 1:2 over 22 points. […] Source plates are replicated into 384-well Optiplates (PerkinElmer, Waltham, Mass.), 0.5 μL/well, to make assay-ready plates.
The different PI3K isoforms are each diluted in enzyme reaction buffer to 2× working solutions. […] Two different 2× substrate solutions are made in enzyme reaction buffer. In one solution, PI(4,5)P2 (Echelon Biosciences, Salt Lake City, Utah) is diluted to 10 μM and ATP is diluted to 20 μM. This solution is used in the assays testing PI3Kα and PI3Kβ. In a second solution, PI(4,5)P2 is diluted to 10 μM and ATP is diluted to 8 μM. This solution used in the assays testing PI3Kγ and PI3Kδ.
The AlphaScreen® reaction solutions are made using beads from the anti-GST AlphaScreen® kit (PerkinElmer, Waltham, Mass.). Two solutions are made in Alphascreen reaction buffer to 4× working concentrations. In one solution, biotinylated-IP4 (Echelon Biosciences, Salt Lake City, Utah) is diluted to 40 nM and streptavadin-Donor Beads are diluted to 80 μg/mL. In the second solution, PIP3-binding protein (Echelon Biosciences, Salt Lake City, Utah) is diluted to 40 nM and anti-GST-Acceptor Beads are diluted to 80 μg/mL. 10 μL/well of enzyme reaction buffer is added to Column 24 of the assay ready plates in place of enzyme. This is done for plates in the PI3Kα, β, and 67 assays.
Using a 384-well dispensing Multidrop (Titertek, Huntsville, Ala.), 10 μL/well of 2× enzyme (PI3Kα, β, δ) is added to Columns 1-23 of the appropriate assay ready plates (for PI3Kγ 10 μL is added to Columns 1-24). 10 μL/well of the appropriate substrate solution (the solution with 20 μM ATP for PI3Kα and β assays, and the solution with 8 μM ATP for PI3Kγ and δ assays) is then added to Columns 1-24 of the plates. Plates are then incubated at room temperature for 20 minutes.
In the dark, 10 μL/well of the Donor Bead solution is added to Columns 1-24 of the plates to quench the enzyme reaction. The plates are incubated at room temperature for 30 minutes. Still in the dark, 10 μL/well of the Acceptor Bead solution is also added to Columns 1-24 of the plates. The plates are then incubated in the dark for 1.5 hours. The plates are read on an Envision Multilabel Plate Reader (PerkinElmer, Waltham, Mass.) with a 680 nm excitation filter and a 520-620 nm emission filter.

mTOR = target: T2, mTOR (Homo sapiens, UniProt P42345); assay: In vitro mTOR assay (Lanthascreen); assay type: biochemical; conditions: average if run more than once
T2 construct: purchased Invitrogen (Carlsbad, Calif.)
How it was run: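 mTOR activity measured by TR-FRET as Thr46 phosphorylation of GFP-4E-BP1, detected with Tb-labelled anti-phospho-4E-BP1 [T46] antibody after EDTA stop. Final 50 ng/mL mTOR, 400 nM GFP-4E-BP1, 7 μM ATP in HEPES pH 7.5 with 10 mM MnCl2; 1 h, room temperature. 10-point 1:3 compound series.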

[1] = test system: phosphorylation of Akt at Serine 473; assay: pAkt AlphaScreen (U87 cell); assay type: cell-based; conditions: Homo sapiens, U-87 MG; U87 MG cells, pAkt Ser473; average
How it was run: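 U87 MG cells (5K per well, plated overnight) were exposed to compound for two hours at 37° C, 25 μM down to 11.9 pM in 0.5% DMSO. After lysis, phospho-Akt Ser473 was measured by SureFire AlphaScreen following overnight room-temperature incubation, and IC50 was derived from percent of control.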

T1 sequence (P42336 whole entry): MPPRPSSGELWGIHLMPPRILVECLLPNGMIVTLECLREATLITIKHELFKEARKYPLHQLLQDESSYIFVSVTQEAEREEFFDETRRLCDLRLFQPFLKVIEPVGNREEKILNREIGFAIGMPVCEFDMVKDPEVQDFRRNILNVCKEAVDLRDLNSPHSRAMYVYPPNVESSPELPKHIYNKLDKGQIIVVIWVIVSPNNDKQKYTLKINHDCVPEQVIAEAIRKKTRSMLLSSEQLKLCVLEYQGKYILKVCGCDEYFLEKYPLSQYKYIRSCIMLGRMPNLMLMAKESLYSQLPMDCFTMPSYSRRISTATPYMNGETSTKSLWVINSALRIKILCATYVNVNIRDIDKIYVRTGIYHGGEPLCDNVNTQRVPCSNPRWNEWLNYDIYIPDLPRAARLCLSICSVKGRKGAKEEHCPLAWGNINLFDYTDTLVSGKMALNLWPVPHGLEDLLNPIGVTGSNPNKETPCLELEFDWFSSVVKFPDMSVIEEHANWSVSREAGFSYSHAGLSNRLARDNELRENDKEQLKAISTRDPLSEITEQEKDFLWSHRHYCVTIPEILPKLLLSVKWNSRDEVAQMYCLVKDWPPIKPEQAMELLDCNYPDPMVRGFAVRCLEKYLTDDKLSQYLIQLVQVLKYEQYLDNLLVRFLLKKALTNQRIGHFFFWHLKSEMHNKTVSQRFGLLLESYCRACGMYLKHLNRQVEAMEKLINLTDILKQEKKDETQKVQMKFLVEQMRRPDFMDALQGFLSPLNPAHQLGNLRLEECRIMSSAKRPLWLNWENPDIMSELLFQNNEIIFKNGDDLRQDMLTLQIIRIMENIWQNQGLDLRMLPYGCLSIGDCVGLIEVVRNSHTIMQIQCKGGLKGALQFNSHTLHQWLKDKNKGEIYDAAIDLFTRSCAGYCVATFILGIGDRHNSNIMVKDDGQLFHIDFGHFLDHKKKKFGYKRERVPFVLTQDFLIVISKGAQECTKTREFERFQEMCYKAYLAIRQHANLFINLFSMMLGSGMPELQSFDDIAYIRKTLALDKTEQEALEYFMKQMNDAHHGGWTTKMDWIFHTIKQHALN
T1 sequence (P27986 whole entry partner): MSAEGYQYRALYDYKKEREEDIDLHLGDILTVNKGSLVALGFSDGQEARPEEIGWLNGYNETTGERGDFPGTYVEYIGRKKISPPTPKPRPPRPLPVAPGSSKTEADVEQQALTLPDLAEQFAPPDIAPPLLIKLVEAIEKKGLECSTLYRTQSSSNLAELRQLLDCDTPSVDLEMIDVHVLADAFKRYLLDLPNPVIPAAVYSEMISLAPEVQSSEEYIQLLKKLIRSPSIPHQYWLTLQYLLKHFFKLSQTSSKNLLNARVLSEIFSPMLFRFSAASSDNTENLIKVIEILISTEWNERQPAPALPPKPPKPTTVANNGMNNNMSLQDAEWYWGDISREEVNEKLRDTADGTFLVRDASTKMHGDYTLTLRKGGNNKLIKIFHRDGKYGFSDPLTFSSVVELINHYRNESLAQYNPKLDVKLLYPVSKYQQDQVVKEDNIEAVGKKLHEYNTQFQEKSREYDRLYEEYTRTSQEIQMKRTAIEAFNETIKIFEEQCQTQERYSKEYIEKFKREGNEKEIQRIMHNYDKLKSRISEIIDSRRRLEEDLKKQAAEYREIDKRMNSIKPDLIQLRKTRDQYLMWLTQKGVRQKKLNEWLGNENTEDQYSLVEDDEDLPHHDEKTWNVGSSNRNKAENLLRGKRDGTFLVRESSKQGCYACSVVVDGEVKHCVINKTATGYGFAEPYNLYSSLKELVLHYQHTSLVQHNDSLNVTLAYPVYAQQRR
T2 sequence (P42345 1360-2549 limits assumed): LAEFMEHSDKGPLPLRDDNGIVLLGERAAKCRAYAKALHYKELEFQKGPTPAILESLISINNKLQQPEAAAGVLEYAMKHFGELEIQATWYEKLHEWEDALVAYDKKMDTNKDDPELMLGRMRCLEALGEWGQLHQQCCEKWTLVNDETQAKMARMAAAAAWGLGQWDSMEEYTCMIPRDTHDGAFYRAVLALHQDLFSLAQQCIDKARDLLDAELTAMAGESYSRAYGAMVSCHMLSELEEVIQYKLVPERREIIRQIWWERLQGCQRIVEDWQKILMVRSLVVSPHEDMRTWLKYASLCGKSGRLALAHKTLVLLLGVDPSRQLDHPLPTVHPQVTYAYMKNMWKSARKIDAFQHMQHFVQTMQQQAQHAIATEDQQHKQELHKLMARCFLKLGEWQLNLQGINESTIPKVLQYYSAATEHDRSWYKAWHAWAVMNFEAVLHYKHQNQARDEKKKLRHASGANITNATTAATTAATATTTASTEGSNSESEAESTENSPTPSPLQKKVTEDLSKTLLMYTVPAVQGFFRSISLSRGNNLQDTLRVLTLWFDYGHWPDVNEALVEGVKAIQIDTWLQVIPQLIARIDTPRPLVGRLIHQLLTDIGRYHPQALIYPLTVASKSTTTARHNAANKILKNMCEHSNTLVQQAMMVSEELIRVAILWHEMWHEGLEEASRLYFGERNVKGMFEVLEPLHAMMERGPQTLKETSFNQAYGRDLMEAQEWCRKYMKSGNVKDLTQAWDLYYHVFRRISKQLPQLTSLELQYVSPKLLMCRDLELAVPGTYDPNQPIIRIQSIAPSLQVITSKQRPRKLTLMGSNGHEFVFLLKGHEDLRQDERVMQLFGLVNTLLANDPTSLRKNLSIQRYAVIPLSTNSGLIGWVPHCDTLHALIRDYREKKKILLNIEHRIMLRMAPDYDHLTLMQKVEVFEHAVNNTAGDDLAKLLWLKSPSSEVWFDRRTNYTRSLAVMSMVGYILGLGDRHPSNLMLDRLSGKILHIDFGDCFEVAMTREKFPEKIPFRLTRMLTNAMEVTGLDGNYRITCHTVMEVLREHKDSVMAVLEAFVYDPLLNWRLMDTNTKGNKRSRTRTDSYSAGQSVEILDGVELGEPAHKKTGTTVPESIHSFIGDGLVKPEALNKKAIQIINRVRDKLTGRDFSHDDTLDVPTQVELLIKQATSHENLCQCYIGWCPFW

Row | SMILES | Ki (PI3Kα) [µM] | IC50 (mTOR) [µM] | IC50 [1] [µM]
1 | CCN(Cc1noc(C2CC2)n1)c1ccnc2ccc(-c3cnc(Cl)c(NS(C)(=O)=O)c3)cc12 [Example 77, N-(2-chloro-5-(4-(((5-cyclopropyl-1,2,4-oxadiazol-3-yl)methyl)(ethyl)amino)-6-quinolinyl)-3-pyridinyl)methanesulfonamide] | 0.0184 | 0.0677 | 1.93
2 | COc1ncc(-c2ccc3nccc(N4CCOCC4)c3c2)cc1NS(C)(=O)=O [Example 119, N-(2-Methoxy-5-(4-morpholinoquinolin-6-yl)pyridin-3-yl)methanesulfonamide] | 0.0047 | 0.0176 | 0.0448
3 | CN(C)S(=O)(=O)Nc1cc(N2CCc3nccc(N4CCOCC4)c3C2)cnc1Cl [Example 136, N′-(2-Chloro-5-(4-(4-morpholinyl)-7,8-dihydro-1,6-naphthyridin-6(5H)-yl)-3-pyridinyl)-N,N-dimethylsulfamide] | 0.111 | 0.065 | 0.289
4 | COc1ncc(-c2ccc3nccc(-c4ccncc4)c3c2)cc1NS(C)(=O)=O [Example 120, N-(2-Methoxy-5-(4-(pyridin-4-yl)quinolin-6-yl)pyridin-3-yl)methanesulfonamide] | 0.0035 | 0.0048 | 0.0147
5 | COCCN(C)S(=O)(=O)Nc1cc(-c2ccc3ncc(=O)n(-c4ccccc4)c3c2)cnc1Cl [Example 131, N-(2-chloro-5-(3-oxo-4-phenyl-3,4-dihydroquinoxalin-6-yl)pyridin-3-yl) 2-methoxy-N-methylethanaminosulfonamide] | 0.0032 | 0.0076 | 0.0092
6 | O=S(=O)(Nc1cc(-c2ccc3nccc(-c4ccnc(Cl)c4)c3c2)cnc1Cl)c1ccc(F)cc1 [Example 94, N-(2-chloro-5-(4-(2-chloro-4-pyridinyl)-6-quinolinyl)-3-pyridinyl)-4-fluorobenzenesulfonamide] | 0.0013 | 0.0006 | 0.0053
7 | O=S(=O)(Nc1cc(-c2ccc3nccc(OC4CCSC4)c3c2)cnc1Cl)c1ccc(F)cc1 (stereo not drawn) [Example 108, N-(2-chloro-5-(4-(tetrahydro-3-thiophenyloxy)-6-quinolinyl)-3-pyridinyl)-4-fluorobenzenesulfonamide] | 0.0023 | 0.0079 | 0.306
